This is an account of results in ChEMBL document CHEMBL1201862, “PubChem BioAssay data set” (2004).

Assay in all cases: DTP human tumour cell line panel, 48 h
Test [1] concerns A498.
Test [2] concerns CAKI-1.
The subject of test [3] is HCC 2998.
Test [4] relates to HL-60.
In test [5] the test system is HOP-62.
In test [6] the test system is IGROV-1.
Test [7] deals with Malme-3M.
Test [8] has as its system NCI-H460.
The subject of test [9] is OVCAR-3.
The test system of test [10] is OVCAR-4.
The test system of test [11] is OVCAR-5.
Test [12] relates to SF-295.
In test [13] the test system is SK-MEL-5.
For test [14], the system named is SN12C.
Test [15] has as its system SNB-19.
For test [16], the system named is SR.
The subject of test [17] is T47D.
In test [18] the test system is TK-10.
Test [19] deals with UO-31.
The subject of test [20] is BT-549.

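Each compound was tested at five concentrations against cells in 96-well plates for 48 hours. GI50 marks 50% less growth.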 Active and inactive are the calls of the source. No stated cut-off is given here; in the data, active = GI50 up to about 1.1 µM and inactive = higher.

By GI50 is commonly meant the concentration at which growth is held to half of that of the control. For the compound `O=CC12c3ccccc3C(c3ccccc31)C1C(=O)NC(=O)C12` (stereo not drawn), the GI50 is 10.8 µM (inactive) in [1]; 54.2 µM (inactive) in test [2]; > 100 µM (inactive) in [3]; > 100 µM (inactive) in [4]; 56 µM (inactive) in test [5]; 37.2 µM (inactive) in [6]. In addition, the GI50 in test [7] is 90.2 µM (inactive); in test [8] it was > 100 µM (inactive); in test [9], > 100 µM (inactive); in test [10] it was > 100 µM (inactive); in test [11] it was > 100 µM (inactive); in test [12], > 100 µM (inactive). For the same compound, the GI50 in [13] was 37.2 µM (inactive); in [14], > 100 µM (inactive); in test [15] it was > 100 µM (inactive); in test [16], > 100 µM (inactive); in [17], 75.3 µM (inactive); in [18], > 100 µM (inactive). Also, the GI50 in test [19] was 44.7 µM (inactive).
In the case of `O=C(/C=C/c1cccs1)c1ccsc1`, the GI50 in test [1] is 38.7 µM (inactive); in [2], 56.5 µM (inactive); in test [3], 17.4 µM (inactive); in test [4], 15.5 µM (inactive); in test [5], 73.5 µM (inactive); in test [6] it was 25.1 µM (inactive). For the same compound, the GI50 in test [7] was 22.2 µM (inactive); in [8], 24.5 µM (inactive); in test [10], 51.1 µM (inactive); in [11], 26.9 µM (inactive); in test [12], 32.4 µM (inactive); in test [13], 18.9 µM (inactive). Besides, the GI50 in test [14] was 19.8 µM (inactive); in [15], 18.9 µM (inactive); in test [16] it was 16.6 µM (inactive); in test [17] it was 26.3 µM (inactive); in test [18], 22.7 µM (inactive); in [19], 17.6 µM (inactive).
For the compound `N#Cc1nc(CCC(c2nc(C#N)c(N)o2)N2C(=O)c3ccccc3C2=O)oc1N` (stereo not drawn), the GI50 in test [1], in test [2], in test [3], in test [4], in [5] and in [6] was > 100 µM (inactive) throughout. In addition, the GI50 is > 100 µM (inactive) in test [7]; > 100 µM (inactive) in [8]; > 100 µM (inactive) in test [9]; 67.6 µM (inactive) in [10]; > 100 µM (inactive) in [11]; > 100 µM (inactive) in [12]. The GI50 was > 100 µM (inactive) in test [13]; > 100 µM (inactive) in [14]; > 100 µM (inactive) in [15]; < 0.01 µM (active) in test [16]; > 100 µM (inactive) in test [17]; > 100 µM (inactive) in test [18]. Moreover, the GI50 in test [19] was > 100 µM (inactive).
In the case of `NC(=O)CCC(NC(=O)c1c2ccccc2nc2ccccc12)C(=O)O` (stereo not drawn), the GI50 in [1], in test [20], in [2], in [3], in test [5] and in [6] was > 100 µM (inactive) each time. The GI50 in test [7], in [8], in test [9], in test [10], in [11] and in test [12] was > 100 µM (inactive) in each case. The GI50 in test [13], in test [14], in test [15], in test [18] and in [19] was > 100 µM (inactive) in each case.
